The record followed here is patent US20260007609A1, “METHOD FOR PRODUCING EXTRACELLULAR VESICLES CONTAINING BIOACTIVE SUBSTANCE” (The University of Tokyo, priority 2022, published 2026).

“Also recorded” adds a separate entry of the source.

Type in all cases: cell-based
Assay [1] deals with ShhN-EGFP transduced NIH3T3 fibroblasts. Briefly: In vitro extracellular vesicle release imaging (Shh-EV tracking). As for the experimental part:
(§1) CID1067700 (#SML0545-5MG) was purchased from Sigma-Aldrich, was solubilized at 40 mM in DMSO, and was added to cells to a final concentration of 40 μM, followed by performing culture for 24 hours. GW4869 (#13127) was purchased from Cayman Chemical, was solubilized at 5 mM in DMSO, and was added to cells to a final concentration of 1.25 μM, followed by performing culture for 24 hours. TAS116 (#HY-15785) was purchased from MedChemExpress, was solubilized at 1 mM in DMSO and was added to cells to a final concentration of 0.5 μM, followed by performing culture for 48 hours.
In order to monitor the Brownian motion of Shh extracellular particles, NIH3T3 cells were plated at 1×10^4 cells/well onto an 8-well LabTek II Chamber #1.5 German Coverglass System pre-coated with poly-L-lysine. On the 3rd day of the culture, an adenoviral Shh-N-EGFP expression vector was introduced into the NIH3T3 cells. […] Twenty-four hours after the medium replacement, time-lapse imaging was performed using a spinning disc microscope (Yokogawa/ZEISS) according to the previous report (Tanaka et al., Neuron 90, 1215-1229, 2016) under conditions of 5% CO2 and 37° C. at intervals of 5 seconds. Shh extracellular vesicles with Brownian motion were identified using Imaris 8 software (Bitplane) and were then quantified.
Extracellular vesicles with a large particle diameter, which contain Shh, were visualized by live cell imaging in ShhN-EGFP transduced NIH3T3 fibroblasts treated with CID1067700 (FIG. 5).
These particles were automatically tracked and were identified as extracellular vesicles released from cells under drug (CID1067700, GW4869, or TSA116) addition conditions (FIGS. 5B to 5I). […] However, this increase in the released amount of Shh-EVs due to the CID1067700 treatment disappeared, when the cells were treated with […] TSA116 (Hsp90 inhibitor) for 48 hours or with 1.25 μM GW4869 (nSMase2 inhibitor) for 24 hours (FIG. 5J).

Assay [2] has as its system NIH3T3 cells. In words: Immunostaining of ceramide. As for the experimental part:
(§2) As for light microscopic observation, cells were plated on a 35-mm glass-bottomed dish (Matsunami, Japan, #D11130H) that had been pre-coated with poly-L-lysine (1:1,000, Sigma, #P4707) for 1 hour. Immunofluorescence labelling was performed using the antibodies described above. Briefly, cells were incubated with the primary antibody overnight at 4° C., and with the secondary antibody for 1 hour, followed by washing with PBS three times for 5 minutes for each washing. Thereafter, as mentioned above, using a spinning disc confocal microscope (Yokogawa/ZEISS) or an LSM780 confocal microscope equipped with Airyscan, the cells were observed. Three dimensional reconstruction of the cells was performed using Imaris 8 software (Bitplane).
In order to investigate whether nSMase2 activity is influenced by the CID1067700 treatment, NIH3T3 cells were treated with CID1067700 and/or GW4869, and immunostaining of ceramide was then performed (FIG. 6).

The test system of assay [3] is human mesenchymal stem cells. Briefly: Transmission electron microscopy of hMSC-EV pellets. As to conditions: TEM histogram of particle sizes larger than 100 nm, vs DMSO. Here is the method:
Observation by transmission electron microscopy (TEM) was performed according to previously reported standard methods (Nonaka et al., Cell 95, 829-837, 1998; Takei et al., The Journal of cell biology 131, 1789-1800, 1995). A precipitate of extracellular vesicles was fixed in Half Kalnovsky fixative at 37° C. for 10 min and then at 4° C. overnight, followed by post-fixation with 1% OsO4 (in 0.1 M cacodylate buffer (pH 7.4)) on ice for 1.5 hours. Thereafter, the sample was subjected to electron staining with 1% uranyl acetate for 1 hour, and was then dehydrated using a graded ethanol series. Finally, the dehydrated extracellular vesicle sample was embedded in Quetol-812 (Nisshin EM), was then cut into ultrathin sections, was then electron-stained with uranyl acetate and lead citrate, and was then observed using a JEM2000 microscope at 100 keV, or using a JEM-1400Flash microscope at 80 keV. Next, the extracellular vesicle pellets were observed using TEM (FIG. 4). In addition to conventionally known small (approximately 100 nm in diameter) exosome-like particles, particles with a low electron density (bright) and a diameter of larger than 800 nm were contained in the extracellular vesicle fraction derived from human mesenchymal stem cells treated with CID1067700, and the particles tended to be surrounded with a lipid double layer (FIGS. 4A and 4B).

Assay [4] relates to human mesenchymal stem cells. Briefly: Nanoparticle tracking analysis (NTA) of culture supernatant of human mesenchymal stem cells. Here is the method:
(§3) Human mesenchymal stem cells were plated on three 10-cm cell culture dishes at a density of 5,000 to 6,000 cells/cm^2. Six days after initiation of the culture, per dish, the medium was replaced with the EV Production Basal Medium (FUJIFILM-Wako, #053-09451 and #298-84001), to which 10 mL of supplements had been added (wherein a new medium to be replaced comprised an additive compound, as appropriate). After 24 hours of culture under conditions of 5% CO2 and 37° C., the medium was recovered, and was then centrifuged at 2,000×g for 30 minutes at 4° C. to remove the cell debris. Using a Millipore Amicon Ultra 30,000 MWCO filter (Pall, #MAP030C37), the resultant was centrifuged at 4,000×g for 60 minutes at 4° C., so that it was condensed to 1 ml. To the condensed culture supernatant, 500 μL of Total Exosome Isolation Reagent (Invitrogen, #4478359) was added, and the obtained mixture was then incubated overnight, while mixing it by inverting. The solution that had been mixed overnight was centrifuged at 10,000×g for at least 1 hour, and the extracellular vesicles were harvested as a precipitate, which was then resuspended in 30 μL of PBS. The obtained extracellular vesicles were preserved at 4° C. and were then used in experiments within 1 week.
The above-described culture supernatant was diluted with PBS, and was then analyzed using Zetaview Nanoparticle Tracking Analysis Instrument (Particle Metrix, Germany). The collected data were analyzed and diagrammatized using Prism software (Graphpad, ver. 7 and 9.3.1).
First, human mesenchymal stem cells were cultured for 24 hours in a basic medium for EV production (FUJIFILM-Wako) supplemented with supplements in the presence or absence of CID1067700, and NTA was performed using the culture supernatant after removing impurities by centrifugation (FIG. 3). Using ZetaView system capable of counting extracellular vesicles with a large particle diameter such as approximately 1 μm, the measurement was performed at the “highest” mode. […]

The subject of assay [5] is NIH3T3 cells. In words: Fluorescence microscopy of extracellular structures containing Shh and Hsp90. As to conditions: 40 μM, 24 hours, vs DMSO. Here is the method: as §2
The morphological characteristics of Shh-EVs mediated by Hsp90 secreted from CID1067700-treated cells were observed. Both Shh-tagRFP and Hsp90-EGFP were transduced into NIH3T3 cells, and the effects obtained by treating the cells with CID1067700 for 24 hours were compared. The cells were fixed the cells and were then photographed by z-stacks, and a three-dimensional model was then constructed. […] Since these structures were observed after the medium was removed and the cells were fixed, they are thought to interact with the cells as intermediate structures in the process of extracellular vesicle release. […]

Assay [6] deals with human mesenchymal stem cells. Briefly: Immunoblotting of extracellular vesicle fraction from culture supernatant of treated human mesenchymal stem cells. As to conditions: 40 μM, 24 hours, compared to DMSO. Here is the method: as §1, §3
Immunoblotting was performed according to the previous report (Yin et al., Neuron 70, 310-325, 2011). […] The bands were detected using an ImageQuant LAS 4000 mini system (GE Healthcare Life Sciences, USA) and were then quantified using ImageJ software. […]

[7] abbreviates: culture supernatant, 24 hours treatment, n=4.

For the compound `CCc1cc(C(N)=O)ccc1-n1nc(C(C)C)c2c(-n3cnc(-c4cnn(C)c4)c3)ccnc21` [TSA116], the “increase in the released amount of Shh-EVs due to the CID1067700 treatment” value in assay [1] (co-treatment with 5 μM TSA116 for 48 hours) was “disappeared”.
On to `O=C(/C=C/c1ccc(/C=C/C(=O)Nc2ccc(C3=NCCN3)cc2)cc1)Nc1ccc(C2=NCCN2)cc1` [GW4869], for which, in assay [1] (co-treatment with 1.25 μM GW4869 for 24 hours), the “increase in the released amount of Shh-EVs due to the CID1067700 treatment” value is listed as “disappeared”. In addition, in the assay on NIH3T3 cells [2] (simultaneous treatment with GW4869 (2.5 μM), 24 hours), the “increase in the expression level of ceramide caused by CID1067700” value is listed as “significantly suppressed; also recorded: offset”.
In the case of `CC1(C)Cc2c(sc(NC(=S)NC(=O)c3ccccc3)c2C(=O)O)CO1` [CID1067700, 2-(benzoylcarbamothioylamino)-5,5-dimethyl-4,7-dihydrothieno[2,3-c]pyran-3-carboxylic acid], in assay [1] (24 hours of treatment, compared to control (DMSO treatment)), the “number of Shh-EVs” value is “significantly increased”. The “number of large-size extracellular vesicles” value in assay [3] is “significantly increased”. Also, in assay [4] (setting [7]), the “extracellular vesicles with a diameter of 100 to 800 nm per ml” value was 3.2±1.9×10^8 particles/ml and the “extracellular vesicles with a diameter of larger than 800 nm” value was 6.6±2.2×10^7 particles/ml. The “number of extracellular vesicles with a particle diameter of greater than 800 nm” value in assay [4] (result in words, vs DMSO alone) is on record as “significantly increased”. Further, in the assay on NIH3T3 cells [5], the “cells with extracellular structures containing Hsp90 and Shh” value is recorded as “significantly increased”. For the same compound, the “expression level of ceramide in the cytoplasm” value in the assay on NIH3T3 cells [2] (24 hours of treatment (40 μM), compared to DMSO alone) is recorded as “significantly increased”. Moreover, in assay [6], the “amount of Shh in the extracellular vesicles released from the cells” value is “significantly elevated”, the “amount of the general exosome marker Hsp90 in extracellular vesicles” value is on record as “largely unaltered” and the “amount of the general exosome marker TSG101 in extracellular vesicles” value is “largely unaltered”.
